“Also recorded” adds a separate entry of the source.
What was measured:
2F–2B ECs = type: cell-based, murine
Method: The murine 2F–2B endothelial cell line (ATCC) was transiently transfected as described elsewhere (Soares et al., Nature Med. 4:1073, 1998; Brouard et al, J. Exp. Med. 192:1015, 2000). All experiments were conducted 24–48 h after transfection. é-galactosidase-transfected cells were detected as described elsewhere (Soares et al., Nature Med. 4:1073, 1998; Brouard et al., J. Exp. Med. 192:1015, 2000). Percentage of viable cells was assessed by evaluating the number of é-galactosidase-expressing cells that retained normal morphology as described elsewhere (Soares et al., Nature Med. 4:1073, 1998; Brouard et al., J. Exp. Med. 192:1015, 2000). The number of random fields counted was determined to have a minimum of 200 viable transfected cells per control well. The percentage of viable cells was normalized for each DNA preparation to the number of transfected cells counted in the absence of the apoptosis-inducing agent (100% viability). All experiments were performed at least three times in duplicate. Actinomycin D (Act. D; Sigma) was dissolved in PBS and added to the culture medium (10 îg/ml) 24 h after transfection. SnPPIX (Porphyrin Products) was dissolved (10 îM) in 100 mM NaOH and conserved at −20° C. until used. SNPPIX was added to the culture medium (50 îM) 6 h after transfection. Human recombinant TNF-α (R&D Systems, Minneapolis, Minn.) was dissolved in PBS, 1% BSA, and added to the culture medium (10–100 ng/ml) 24 h after transfection.
Cells were exposed to compressed air or varying concentration of CO (250 and 10,000 ppm), as described elsewhere (Otterbein et al., Nature Med. 6:422, 2000; and Brouard et al., J. Exp. Med. 192:1015, 2000).
BAECs and 2F–2B ECs were transiently transfected. All experiments were carried out 24–48 h after transfection. The percentage of viable cells was assessed by evaluating the number of β-galactosidase-expressing cells that retained normal morphology. The number of random fields counted was determined to have a minimum of 200 viable transfected cells per control well. The percentage of viable cells was normalized for each DNA preparation to the number of transfected cells counted in the absence of the apoptosis-inducing agent (100% viability). All experiments were performed at least three times in duplicate.
Actinomycin D (Act.D; Sigma-Aldrich) was dissolved in PBS and added to the culture medium 24 h after transfection. The Act.D concentration used corresponded to the optimal concentration necessary to sensitize ECs to TNF-α mediated apoptosis, e.g., 10 μg/ml for 2F–2B ECs and 0.1 μg/ml for BAECs. When indicated, EC apoptosis was induced by etoposide (200 μM, 8 h; Calbiochem-Novabiochem) or by serum deprivation (0.1% FCS for 24 h). The iron chelator deferoxamine mesylate (DFO; Sigma-Aldrich) was dissolved in water and added to culture medium (1–100 μM) 1 h before the induction of apoptosis. Hemoglobin (Hb; Sigma-Aldrich) was dissolved (1 mM) in PBS, 10 mM Na2S2O4, dialyzed against PBS (2 h, 4° C., 1:800 dilution), and added to the culture medium (1–100 μM) 6 h after transfection. The guanylcyclase inhibitor 1H(1,2,4)oxadiazolo(4,3)quinoxalin-1 (ODQ; Calbiochem-Novabiochem) was dissolved in DMSO (Sigma-Aldrich) and added to the culture medium (10–100 μM) 6 h after transfection. Iron protoporphyrin ([FePP]/heme), cobalt protoporphyrin (CoPPIX), and tin protoporphyrin (SnPPIX; all from Porphyrin Products, Inc.) were dissolved (10 mM) in 100 mM NaOH and held at −20° C. until use. Metalloporphyrins were added to the culture medium (50 μM) 6 h after transfection. The cGMP analogue 8-bromo-cGMP sodium salt (8-Br-cGMP; Sigma-Aldrich) was dissolved in water and added to the culture medium (10–100 µM) 30 min before the induction of apoptosis. Human recombinant TNF- (R&D Systems) was dissolved in PBS and 1% BSA, and added to the culture medium (10–100 ng/ml) 24 h after transfection.
Cells were exposed to compressed air from a compressed air tank or varying concentrations of CO (250 and 10,000 ppm).

[1] = tested on: mouse hearts transplanted into rats; assay: Immunohistology of cardiac grafts (thrombosis, apoptosis); type: in vivo, BALB/c mouse hearts, Lewis rats; settings: for vascular thrombosis in graft: 3 days after transplantation
Method: Grafts were harvested 3 days after transplantation, snap-frozen in liquid nitrogen, and stored at −80° C. Cryostat sections were fixed and stained as described previously (Soares et al, Nature Med. 4:1073, 1998). Rat leukocyte populations were analyzed by using anti-rat leukocyte common Ag (LCA, CD45; OX-1), Éé TCR (TCRÉé-chains; R73), B cell (CD45RB; OX-33), NK cell (NKR-P1; 3.2.3), and MΦ (CD68; ED-1), mAbs (Serotec, Harlan Bioproducts for Science, Indianapolis, Ind.). Detection of fibrin/fibrinogen was conducted by using a rabbit anti-human fibrin/fibrinogen polyclonal Ab (Dako, Carpinteria, Calif.). Intragraft complement activation was detected by using an anti-rat Clq (The Binding Site, Birmigham, U. K.), C3 (ED11; Serotec), or C5b-9 mAb (Dako). Rat IgM was detected by using the mouse anti-rat IgM mAb MARM-4 (a kind gift of Dr. H. Bazin, University of Louvain, Brussels, Belgium). Isotype-matched mAbs or purified Ig, as well as a control for residual endogenous peroxidase activity, were included in each experiment. Detection of apoptosis was carried out by using ApopTagO in situ apoptosis detection kit (Oncor, Gaithersburg, Md.) according to the manufacturer's instructions.
Mouse hearts were transplanted into CVF plus CsA-treated rats. SnPPIX or FePPIX was administered and graft recipients were exposed to CO (250–400 ppm). Grafts were harvested 3 days after transplantation (n=3 per group) and stained for rat IgM, rat and mouse complement C1q, rat and mouse P-selectin, rat and mouse fibrin/fibrinogen, and rat CD45 expressing leukocytes. […] HO-2, HO-1, and ferritin were detected in graft endothelial and smooth muscle cells as well as in cardiac myocytes (data not shown). There was only minimal vascular thrombosis or infiltration by host leukocytes usually associated with focal areas of infarction (data not shown). There was low but detectable P-selectin expression on the vascular endothelium (data not shown). […] Thrombi were consistently observed in large coronary vessels at the base of the heart. There were no detectable P-selectin-expressing platelet aggregates in the microvasculature (data not shown). There was extensive graft infiltration by host neutrophils as well as by CD45^++ leukocytes expressing the monocyte/MΦ marker CD68/ED-1 and MHC class II Ags (data not shown). Infiltrating monocyte/MΦ were found near arterioles and scattered throughout the myocardium, associated with areas of infarction.

[2] = rats treated with SnPPIX or FePPIX

Structure (SMILES): Nc1nc2c(nc(Br)n2[C@@H]2O[C@@H]3COP(=O)(O)O[C@H]3[C@H]2O)c(=O)[nH]1 [8-Br-cGMP, 8-bromoguanosine-3′-5′-cyclic-monophosphate]
- effect on EC apoptosis (2F–2B ECs; 8-Br-cGMP): failed to suppress EC apoptosis

Structure (SMILES): [C-]#[O+] [CO, carbon monoxide]
- vascular thrombosis in graft ([1]; SnPPIX-treated rats exposed to CO 250–400 ppm): no signs of vascular thrombosis
- apoptosis in transplanted mouse hearts ([1]; rats treated with SnPPIX and exposed to CO): Apoptosis did not occur
- effect on EC apoptosis under inhibition of HO activity by SnPPIX (2F–2B ECs; CO 250 ppm): did not suppress EC apoptosis significantly
- effect on TNF-α mediated apoptosis of control ECs (pcDNA3) (2F–2B ECs; exogenous CO 10,000 ppm): TNF-α mediated apoptosis was suppressed

Structure (SMILES): C=CC1=C(C)c2cc3[n-]c(cc4[n-]c(cc5nc(cc1n2)C(C)=C5C=C)c(C)c4CCC(=O)O)c(CCC(=O)O)c3C.[Fe+2] [FePPIX, iron protoporphyrin]
- apoptosis in transplanted mouse hearts [1, 2]: Apoptosis did not occur
- concentrations at which heme becomes cytotoxic (2F–2B ECs; 2F–2B ECs): higher than 10 μM
- heme concentrations at which the protective effect from TNF-α plus Act.D-mediated apoptosis was observed (2F–2B ECs; 2F–2B ECs): 5 to 7 µM
- effect on EC apoptosis when CO was scavenged by Hb (2F–2B ECs; FePP 6.25 μM, Hb 50 μM): no longer able to suppress EC apoptosis

Structure (SMILES): O=c1onc2cnc3ccccc3n12 [ODQ, 1H[1,2,4]oxadiazolo[4,3-α]quinoxalin-1]
- effect on the antiapoptotic effects of HO-1 (2F–2B ECs; ODQ 10–100 μM): did not suppress the antiapoptotic effects of HO-1

Structure (SMILES): C=Cc1c2[n-]c(c1C)/C=c1\[n-]/c(c(C)c1C=C)=C\c1[n-]c(c(CCC(=O)O)c1C)C=c1[n-]/c(c(C)c1CCC(=O)O)=C\2.[Sn+4] [SnPPIX, tin protoporphyrin IX]
- vascular thrombosis in graft ([1]; CVF plus CsA-treated rats, SnPPIX): widespread vascular thrombosis of large coronary vessels
- apoptosis in transplanted mouse hearts [1, 2]: widespread apoptosis of endothelial cells and cardiac myocytes
- effect of protoporphyrin on the antiapoptotic effect of HO-1 (2F–2B ECs; HO-1 transfected ECs, protoporphyrin 50 μM): blocked the antiapoptotic effect of HO-1; also recorded: HO-1 was no longer able to prevent EC apoptosis

— patent US7238469B2, “Carbon monoxide improves outcomes in tissue and organ transplants and suppresses apoptosis” (priority 2001, dated 2007)
